{"source": "patent US20250206759A1", "about": "“FUSED RING COMPOUND, PHARMACEUTICAL COMPOSITION CONTAINING SAME, AND USE OF FUSED RING COMPOUND” (CHENGDU HYPERWAY PHARMACEUTICALS CO., LTD., priority 2022, published 2025)", "key": {"[1]": {"tested_on": "KRas G12D-mediated ERK phosphorylation", "assay": "Inhibition of KRas G12D-mediated ERK phosphorylation in AGS cells", "format": "cell-based", "settings": "read-out: AGS-pERK IC50", "experimental": "Day 1: AGS cells were seeded into 384-well cell culture plates and cultured overnight in a 37° C., 5% CO2 incubator.\nDay 2: The compounds were added to the plates using Echo550 and incubated for 3 h in a 37° C., 5% CO2 incubator. Then cells were fixed with paraformaldehyde, permeated with methanol, and blocked with the blocking solution. Finally, a mixed solution of primary antibodies (rabbit anti pERK, mouse anti GAPDH) was added, and the mixture was incubated at 4° C. overnight.\nDay 3: The mixed solution of primary antibodies was discarded, and a mixed solution of secondary antibodies (goat anti rabbit 800CW, goat anti mouse 680RD) was added. The mixture was incubated at room temperature in the dark. Finally, the cell culture plate was washed with PBST, and then inverted for 1 minute of centrifugation. The fluorescence signal values were read with Odyssey CLx.\nERK phosphorylation was calculated according to the following formula: […]\nX: log value of compound concentration.\nY: average value of relative expression of p-ERK between replicate wells."}, "[2]": {"tested_on": "GP2d cells", "assay": "3D cell proliferation inhibition test (CellTiter-Glo), GP2d cells", "format": "cell-based", "settings": "7 days, read-out: GP2d cells 3D CTG IC50", "experimental": "(§1) The diluted compounds to be tested were added to 384-well low-adhesion cell culture plates by using a nanoliter pipetting system (LABCYTE, P-0200). Then, the cells were plated and incubated in a 37° C., […] incubator for 7 days. Afterward, CellTiter-Glo® […] reagent was added, and the luminescent values were read by an Envision multifunctional microplate reader (the luminescent signal is proportional to the amount of ATP in the system, and the ATP content directly represents the number of viable cells in the system). Finally, the IC50 values (half-maximal inhibitory concentration) of the compounds were obtained by the XLFIT software using the nonlinear fitting formula.\n(§2) a) The diluted compounds to be tested were added to 384-well low-adsorption cell culture plates by using a nanoliter pipetting system.\n(§3) b) Cells were seeded into the 384-well plates in a) and then centrifuged at 1000 rpm for 1 min at room temperature, with a final DMSO concentration of compound being 0.5%. The plates were then incubated in a 37° C., 5% CO2 constant temperature incubator for 7 days.\n(§4) c) CellTiter-Glo® 3D was added to the 384-well cell culture plates in b), shaken in the dark, and incubated at room temperature.\n(§5) d) The luminescence values were read by using an Envision multifunctional microplate reader.\n(§6) The IC50 (half-maximal inhibitory concentration) values of the compounds were obtained by using XLFIT software according to the following nonlinear fitting formula:\n(§7) [formula] • X: log value of compound concentration. • Y: inhibition rate (%)\n(§8) Inhibition rate (%)=100×(average value of negative control−compound)/(average value of negative control−average value of positive control)\n(§9) Positive control: Medium only."}, "[3]": {"tested_on": "ASPC-1 cells", "assay": "3D cell proliferation inhibition test (CellTiter-Glo), ASPC-1 cells", "format": "cell-based", "settings": "7 days, read-out: ASPC-1 cells 3D CTG IC50", "experimental": "as §1, §2, §3, §4, §5, §6, §7, §8, §9"}, "[4]": {"assay": "Pharmacokinetics of compounds in rats (oral)", "format": "in vivo, SD rats", "settings": "for AUC / Cmax: male SD rats", "experimental": "Male SD rats were purchased from Shanghai SIPPR-Bk Lab Animal Co., Ltd. Each test compound was administered orally (3 rats per group) once to SD rats for pharmacokinetic study. The test compounds were prepared on the day of administration. The test compounds were suspended in 5% DMSO+95% saline, and then vortexed for 2 min and ultrasonicated for 5 min to prepare the administration system. The animals were fasted for 10-14 h before oral administration, and the feeding was resumed 4 h after administration. After oral administration by gavage, pharmacokinetic samples were collected from SD rats through the jugular vein. The collection time points were: before administration, 15 min, 30 min, 1 h, 2 h, 4 h, 6 h, 8 h and 24 h after administration. Three whole blood samples were collected at each time point, with a collection volume of about 0.2 mL, and anticoagulated with sodium heparin. After blood samples were collected, they were immediately placed on ice and centrifuged to separate plasma within 1 hour (centrifugation conditions: 6800 rpm, 6 min, 2-8° C.). The collected plasma was stored in a −80° C. refrigerator before analysis."}, "[5]": {"settings": "male, SD, rat, plasma, po, 100 mg/kg, 100 mg/kg, read-out: AUC"}, "[6]": {"settings": "male, SD, rat, plasma, po, 100 mg/kg, 100 mg/kg, read-out: Cmax"}}, "note": "Like-named read-outs stand apart in the source and are kept apart here.", "data": [{"smiles": "Oc1cc(-c2ncc3c(N4CC5CCC(C4)N5)nc(OCC45CCCN4[C@@H](c4ccc(C(F)(F)F)c(F)c4)CC5)nc3c2F)c2c(F)c(F)ccc2c1", "note": "(mixture of isomers) [Example 225]", "values": [{"measurement": "IC50", "setting": "[1]; Homo sapiens, AGS", "value": 1.5, "unit": "nM"}, {"measurement": "IC50", "setting": "[2]; 168 h", "value": 1.49, "unit": "nM"}, {"measurement": "IC50", "setting": "[3]; Homo sapiens, ASPC1, 168 h", "value": 11.1, "unit": "nM"}, {"measurement": "AUC", "setting": "[4]; [5]", "value": 380, "unit": "ng·h/mL"}, {"measurement": "Cmax", "setting": "[4]; [6]", "value": 54, "unit": "ng/mL"}]}, {"smiles": "Oc1cc(-c2ncc3c(N4CC5CCC(C4)N5)nc(OCC45CCCN4[C@@H](c4cc(F)c(F)c(F)c4)CC5)nc3c2F)c2c(F)c(F)ccc2c1", "note": "(single isomer, unassigned) [Example 223]", "values": [{"measurement": "IC50", "setting": "[1]", "value": 0.74, "unit": "nM"}, {"measurement": "IC50", "setting": "[2]; 168 h", "value": 0.67, "unit": "nM"}, {"measurement": "IC50", "setting": "[3]; Homo sapiens, ASPC1, 168 h", "value": 3.09, "unit": "nM"}, {"measurement": "AUC", "setting": "[4]; 100 mg/kg", "value": 404, "unit": "ng·h/mL"}, {"measurement": "Cmax", "setting": "[4]; 100 mg/kg", "value": 260, "unit": "ng/mL"}]}, {"smiles": "Oc1cc(-c2ncc3c(N4C[C@H]5CC[C@@H](C4)N5)nc(OCC45CCCN4C(c4ccc6c(c4)OC(F)(F)O6)CC5)nc3c2F)c2c(F)c(F)ccc2c1", "note": "(stereo partly drawn) [Example 142, 4-(4-((1R,5S)-3,8-diazabicyclo[3.2.1]octan-3-yl)-2-((3-(2,2-difluorobenzo[d][1,3]dioxy-5-yl)tetrahydro-1H-pyrrolizin-7a(5H)-yl)methoxy)-8-fluoropyrido[4,3d]pyrimidin-7-yl)-5,6-difluoronaphthalen-2-ol]", "values": [{"measurement": "IC50", "setting": "[1]", "value": 0.83, "unit": "nM"}, {"measurement": "IC50", "setting": "[2]", "value": 1.15, "unit": "nM"}, {"measurement": "IC50", "setting": "[3]", "value": 13.9, "unit": "nM"}, {"measurement": "AUC", "setting": "[4]; 100 mg/kg", "value": 404, "unit": "ng·h/mL"}, {"measurement": "Cmax", "setting": "[4]; 100 mg/kg", "value": 96, "unit": "ng/mL"}]}, {"smiles": "Nc1cc(Cl)c(C(F)(F)F)c(-c2ncc3c(N4C[C@H]5CC[C@@H](C4)N5)nc(OCC45CCCN4C(c4ccc6c(c4)OC(F)(F)O6)CC5)nc3c2F)c1", "note": "(stereo partly drawn) [Example 161, 3-(4-((1R,5S)-3,8-diazabicyclo[3.2.1]octan-3-yl)-2-((3-(2,2-difluorobenzo[d][1,3]dioxy-5-yl)tetrahydro-1H-pyrrolizin-7a(5H)-yl)methoxy)-8-fluoropyridin[4,3-d]pyrimidin-7-yl)-5-chloro-4-(trifluoromethyl) aniline]", "values": [{"measurement": "IC50", "setting": "[2]", "value": 10.9, "unit": "nM"}, {"measurement": "IC50", "setting": "[3]", "value": 46.9, "unit": "nM"}, {"measurement": "AUC", "setting": "[4]; 100 mg/kg", "value": 1080, "unit": "ng·h/mL"}, {"measurement": "Cmax", "setting": "[4]; 100 mg/kg", "value": 193, "unit": "ng/mL"}]}, {"smiles": "C#Cc1c(F)ccc2cc(O)cc(-c3ncc4c(N5CC6CCC(C5)N6)nc(OCC56CCCN5C(c5ccc7c(c5)C5CCC7O5)CC6)nc4c3F)c12", "note": "(centres unmarked) [Example 192]", "values": [{"measurement": "IC50", "setting": "[1]; Homo sapiens, AGS", "value": 1.8, "unit": "nM"}, {"measurement": "IC50", "setting": "[2]; 168 h", "value": 3.51, "unit": "nM"}, {"measurement": "IC50", "setting": "[3]; Homo sapiens, ASPC1, 168 h", "value": 12.2, "unit": "nM"}, {"measurement": "AUC", "setting": "[4]; [5]", "value": 284, "unit": "ng·h/mL"}, {"measurement": "Cmax", "setting": "[4]; [6]", "value": 96, "unit": "ng/mL"}]}, {"smiles": "C#Cc1c(F)ccc2cc(O)cc(-c3ncc4c(N5CC6CCC(C5)N6)nc(OC[C@@]56CCCN5C[C@H](F)C6)nc4c3F)c12", "note": "[MRTX1133, reference compound]", "values": [{"measurement": "IC50", "setting": "[1]", "value": 1.2, "unit": "nM"}, {"measurement": "IC50", "setting": "[2]", "value": 1.38, "unit": "nM"}, {"measurement": "IC50", "setting": "[3]", "value": 10.9, "unit": "nM"}, {"measurement": "oral pharmacokinetics (Cmax and AUC)", "setting": "[4]; SD rats", "value": "extremely poor"}, {"measurement": "AUC", "setting": "[4]; 10 mg/kg", "value": "No parameter"}, {"measurement": "Cmax", "setting": "[4]; 10 mg/kg", "value": "1 to 2", "unit": "ng/mL"}, {"measurement": "AUC", "setting": "[4]; 100 mg/kg", "value": 70, "unit": "ng·h/mL"}, {"measurement": "Cmax", "setting": "[4]; 100 mg/kg", "value": 26, "unit": "ng/mL"}]}]}
